Where two headings read alike, the source gives them in different places. Each block holds one compound with its values, some of them ahead of it.
Columns and labels:
[1] = target: enkephalinase (enkephalin dipeptidylcarboxypeptidase); assay: Determination of enkephalinasic (enkephalin dipeptidylcarboxypeptidasic) activity and effect of inhibitors, striatal membrane fraction, 3H-leucine-enkephalin; assay type: biochemical, rats or mice; conditions: 10 nM leucine-enkephalin 3H, 25° C., pH 7.4, 15 mn, read-out: 50% inhibitory concentration
Procedure: Determination of the "enkephalinasic" (enkephalin dipeptidylcarboxypeptidasic) activity and determination of the effect of inhibitors.
The enzyme preparation used is a membrane fraction from the striatum of rats or mice.
This fraction is obtained by homogenization at 4° C. in 20 volumes Tris-HCl buffer 0.05M (pH 7.4) followed by two successive centrifugations (1000 g×min. and 200,000 g×min.) at the end of which the sediment of the second centrifugation is retained. It is washed by re-suspension in 10 ml of the buffer followed by centrifugation (200,000 g×min) and the resulting sediment is in turn washed superficially to complete the removal of the soluble enzymes. The resulting membrane fraction is taken up into the buffer at 4° C., to obtain a suspension comprising about 1.5 mg proteins per ml.
An aliquot sample (50 μl) of the membrane suspension is then incubated in a final volume of 100 μl at 25° C. in the presence of 10 nM leucine-enkephalin ^3 H (39 Ci/mmole), previously purified by column chromatography over Porapak Q (100-120 mesh, Waters Assoc.) and […] puromycine, an aminopeptidase inhibitor. Incubation time is generally set at 15 mn. in order to determine the initial rate of the formation of tripeptide Tyr-Gly-Gly-^3 H characteristic of the enkephalin dipeptidylcarboxypeptidasic (enkephalinasic) activity.
Determination of the radioactivity of the tripeptide is effected by liquid scintillation spectrometry. […]

[2] = tested on: Tail of the mice; conditions: for potentiation of D Ala2 Met Enkephalin: compound i.v. 100 mg/kg, D Ala2 Met Enkephalin 15 minutes later, ivt, 10 to 30γ/mouse; for specific antalgic effect (tail withdrawal): i.v. 100 mg/kg
[3] = tested on: licking reflex of mice on a plate heated at 55° C.; assay: Hot-plate test (55° C.): potentiation of the antalgic effect of D Ala2 Met Enkephalin and Naloxone antagonism; assay type: in vivo; conditions: for % Increase of the licking time with respect to the animals treated with D Ala2 Met Enkephalin (1): dosage 10 α/mouse; for Potentiation of the effect of a subactive dosage of D Ala2 Met Enkephalin: 0.3γ D Ala2 Met Enkephalin
Procedure: (§1) Licking reflex of mice on a plate heated at 55° C. according to the method of Jacob. and co-workers (Arch. Int. Pharmacodyn. 122, 287-300, 1959: 133, 296-300, 1961).
(a) Potentiation of the antalgic effect of D Ala2 Met Enkephalin
(α) By the intraventricular route (ivt)
(β) By the intravenous route

[4] = tested on: blood-pressure; assay: Hypotensive activity; assay type: in vivo, dogs; conditions: Canis lupus familiaris; intravenous administration; read-out: lowest dosage producing a decrease of the blood-pressure
Text: enkephalin-potentiating activity, (LAUBIE M., SCHMITT H., VINCENT M., REMON D. Central cardiovascular effects of Morphinometric peptids in dogs. European Journal of Pharmacology, Vol. 46, 67-71, 1977).

[5] = tested on: phenylbenzoquinone-induced pain; assay: Phenylbenzoquinone or writhing test; assay type: in vivo; conditions: 0.7 mg/kg i.v.; vs controls p<0.01
Text: 3--Phenylbenzoquinone or "writhing test" according to the method of SIEGMUND and co-workers (Proc. Soc. Expert. Biol. Med. 1957, 95, 729-731).

[6] = tested on: licking reflex of mice on a plate heated at 55° C.; assay: Hot-plate test (55° C.): specific antalgic effect; assay type: in vivo; conditions: intravenous; for ED50: Mus musculus, hot plate 55° C.
Procedure: as §1
(b) Specific antalgic effect

[7] = ivt, + D Ala2 Met Enkephalin 0.3 α/mouse

IC50 [1]: 0.0078 µM
Compound: O=C(CNC(=O)C(CS)Cc1ccccc1)OCc1ccccc1 (stereo not shown) [Compound 57, N-[3-Mercapto-2-benzyl-propanoyl]glycine benzyl ester]

Compound: O=C(O)CNC(=O)C(CS)Cc1ccccc1 (racemic) [Compound 20, N-[(R,S)-3-mercapto-2-benzyl-propionyl]glycine]
Increase reaction time (%) ([2]; 30 mg/kg i.v. + D Ala2 Met Enkephalin (15 γ ivt), 20 mn): 247%
Increase reaction time (%) ([2]; 30 mg/kg i.v. + D Ala2 Met Enkephalin (15 γ ivt), 45 mn): 353%
Increase reaction time (%) ([2]; 30 mg/kg i.v. + D Ala2 Met Enkephalin (15 γ ivt), 60 mn): 283%
Increase reaction time (%) ([2]; 30 mg/kg i.v. + D Ala2 Met Enkephalin (15 γ ivt), 90 mn): 210%
Increase reaction time (%) ([2]; 30 mg/kg i.v. + D Ala2 Met Enkephalin (15 γ ivt), 120 mn): 203%
Increase reaction time (%) ([2]; 100 mg/kg i.v. + D Ala2 Met Enkephalin (15 γ ivt), 20 mn): 239%
Increase reaction time (%) ([2]; 100 mg/kg i.v. + D Ala2 Met Enkephalin (15 γ ivt), 45 mn): 528%
Increase reaction time (%) ([2]; 100 mg/kg i.v. + D Ala2 Met Enkephalin (15 γ ivt), 60 mn): 321%
Increase reaction time (%) ([2]; 100 mg/kg i.v. + D Ala2 Met Enkephalin (15 γ ivt), 90 mn): 382%
Increase reaction time (%) ([2]; 100 mg/kg i.v. + D Ala2 Met Enkephalin (15 γ ivt), 120 mn): 322%
Increase reaction time (%) ([2]; 100 mg/kg i.v. alone, 20 mn): 59%
Increase reaction time (%) ([2]; 100 mg/kg i.v. alone, 45 mn): 196%
Increase reaction time (%) ([2]; 100 mg/kg i.v. alone, 60 mn): 150%
Increase reaction time (%) ([2]; 100 mg/kg i.v. alone, 90 mn): 88%
Increase reaction time (%) ([2]; 100 mg/kg i.v. alone, 120 mn): 85%
potentiation of D Ala2 Met Enkephalin [2]: potentiate most significantly
specific antalgic effect (tail withdrawal) [2]: exhibit a specific antalgic affect
IC50 [1]: 0.005 µM

IC50 [1]: 1 µM
Compound: CC(=O)SCS[C@@H](Cc1ccccc1)C(=O)N[C@@H](CC(C)C)C(=O)O [Compound 33, N-[(S)-2-acetylthiomethylthio-3-phenyl-propionyl]-L.leucine]

Compound: CC(C)C[C@H](NC(=O)[C@H](Cc1ccccc1)NCC(=O)O)C(=O)O [Compound 2, N-(carboxy-methyl)L.phenylalanine-L.leucine]
% Increase of the licking time with respect to the animals treated with D Ala2 Met Enkephalin (1) [3, 7]: 274%
Potentiation of the effect of a subactive dosage of D Ala2 Met Enkephalin ([3]; ivt): significantly potentiated (p≤0.05)
IC50 [1]: 1.5 µM

Compound: CC(C)C[C@H](NC(=O)[C@H](Cc1ccccc1)SCCS)C(=O)O [Compound 35, N-[(S)-2-mercapto-ethylthio-3-phenyl-propionyl]-L.leucine]
increase of the licking time with respect to the animals treated with D Ala2 Met Enkephalin ([3]; compound i.v. 100 mg/kg, D Ala2 Met Enkephalin 0.3γ intraventricular): 100%
% Increase of the licking time with respect to the animals treated with D Ala2 Met Enkephalin (1) [3, 7]: 240%
% Increase of the licking time with respect to the animals treated with D Ala2 Met Enkephalin (1) ([3]; ivt, + D Ala2 Met Enkephalin 0.3 α/mouse + Naloxone 10 mg/kg s.c.): 18%
Potentiation of the effect of a subactive dosage of D Ala2 Met Enkephalin ([3]; ivt): significantly potentiated (p≤0.05)
IC50 [1]: 0.4 µM

Compound: CC(C)C[C@H](NC(=O)[C@@H](S)Cc1ccccc1)C(=O)O [Compound 28, N-[(S)-2-mercapto-3-phenyl-propionyl]-L.leucine]
% Increase of the licking time with respect to the animals treated with D Ala2 Met Enkephalin (1) [3, 7]: 400%
Potentiation of the effect of a subactive dosage of D Ala2 Met Enkephalin ([3]; ivt): significantly potentiated (p≤0.05)

Compound: D Ala2 Met Enkephalin [reference compound]
activity of D Ala2 Met Enkephalin per se ([3]; 0.3 α/mouse, ivt): inactive per se

Compound: CC(C)C[C@H](NC(=O)C(CS)Cc1ccccc1)C(=O)O (stereo partly drawn) [Compound 18, N[(R,S)3-mercapto-2-benzyl-propionyl]-L.leucine]
Increase reaction time (%) ([2]; 100 mg/kg i.v. + D Ala2 Met Enkephalin (30 γ ivt), 20 mn): 0%
Increase reaction time (%) ([2]; 100 mg/kg i.v. + D Ala2 Met Enkephalin (30 γ ivt), 45 mn): 280%
Increase reaction time (%) ([2]; 100 mg/kg i.v. + D Ala2 Met Enkephalin (30 γ ivt), 60 mn): 166%
Increase reaction time (%) ([2]; 100 mg/kg i.v. + D Ala2 Met Enkephalin (30 γ ivt), 90 mn): 87%
Increase reaction time (%) ([2]; 100 mg/kg i.v. + D Ala2 Met Enkephalin (30 γ ivt), 120 mn): 174%
Increase reaction time (%) ([2]; 100 mg/kg i.v. alone, 20 mn): 38%
Increase reaction time (%) ([2]; 100 mg/kg i.v. alone, 45 mn): 80%
Increase reaction time (%) ([2]; 100 mg/kg i.v. alone, 60 mn): 120%
Increase reaction time (%) ([2]; 100 mg/kg i.v. alone, 90 mn): 61%
Increase reaction time (%) ([2]; 100 mg/kg i.v. alone, 120 mn): 90%
potentiation of D Ala2 Met Enkephalin [2]: potentiate most significantly
specific antalgic effect (tail withdrawal) [2]: exhibit a specific antalgic affect
minimal effective dose [4]: 0.3 mg/kg

IC50 [1]: 0.26 µM
Compound: CC(=O)SCC(Cc1ccccc1)C(=O)NCC(=O)OCc1ccc(F)cc1 (stereo not shown) [Compound 54, N-[3-Acetylthio-2-benzylpropanoyl]glycine(p.fluoro)-benzylester]
protection from phenylbenzoquinone-induced pain [5]: protect the treated animals from phenylbenzoquinone-induced pain, with a significant difference with respect to the controls, p<0.01
ED50 [6]: 3 mg/kg
antalgic effect in the hot (55° C.) plate test [6]: have an antalgic effect

IC50 [1]: 0.1 µM
Compound: C[C@H](NC(=O)[C@@H](S)Cc1ccccc1)C(=O)O [Compound 32, N-[(S)-2-mercapto-3-phenyl-propionyl]-L.alanine]

IC50 [1]: 0.4 µM
Compound: CC(=O)SCC(Cc1ccccc1)C(=O)NCC(=O)NCc1ccccc1 (stereo not shown) [Compound 56, N-[3-Acetylthio-2-benzylpropanoyl]glycine benzylamide]

Compound: COC(=O)[C@H](CC(C)C)NC(=O)[C@H](Cc1ccccc1)SC(C)=O [Compound 29, N-[(S)-2-acetylthio-3-phenyl-propionyl]-L.leucine methyl ester]
% Increase of the licking time with respect to the animals treated with D Ala2 Met Enkephalin (1) [3, 7]: 207%
Potentiation of the effect of a subactive dosage of D Ala2 Met Enkephalin ([3]; ivt): significantly potentiated (p≤0.05)

IC50 [1]: 20 µM
Compound: CC(C)C[C@H](NC(=O)[C@@H](Cc1ccccc1)NCC(=O)O)C(=O)O [Compound 5, N-(carboxy-methyl)-D.phenylalanine-L.leucine]

Compound: COC(=O)CNC(=O)C(CSC(C)=O)Cc1ccccc1 (racemic) [Compound 19, N-[(RS)-3-acetylthio-2-benzyl-propionyl]glycine methyl ester]
ED50 [6]: 30 mg/kg
antalgic effect in the hot (55° C.) plate test [6]: have an antalgic effect

IC50 [1]: 5 µM
Compound: CC(C)C[C@H](NC(=O)[C@H](Cc1ccccc1)SC(=O)c1ccccc1)C(=O)O [Compound 27, N-[(S)-2-benzoylthio-3-phenyl-propionyl]-L.leucine]

Compound: C=CCN1CC[C@]23c4c5ccc(O)c4O[C@H]2C(=O)CC[C@@]3(O)[C@H]1C5 [Naloxone, reference compound]
antagonism of the potentiated antalgic effect by Naloxone ([3]; ivt, compounds + D Ala2 Met Enkephalin): this effect is antagonized by Naloxone

IC50 [1]: 0.03 µM
Compound: O=C(CNC(=O)C(CS)Cc1ccccc1)NCc1ccccc1 (stereo not shown) [Compound 60, N-[3-Mercapto-2-benzyl-propanoyl]glycine benzylamide]

IC50 [1]: 0.004 µM
Compound: O=C(N[C@@H](COCc1ccccc1)C(=O)O)C(CS)Cc1ccccc1 (stereo partly drawn) [Compound 24, O-Benzyl-N-[(R,S)-3-mercapto-2-benzyl-propionyl]L.serine]
minimal effective dose [4]: 0.3 mg/kg

IC50 [1]: 0.35 µM
Compound: CC(=O)SCC(Cc1ccccc1)C(=O)NCC(=O)OCC(F)(F)F (stereo not shown) [Compound 55, N-[3-Acetylthio-2-benzylpropanoyl]-glycine-2,2,2-trifluoroethyl ester]

— patent US4513009A, “Aminoacid derivatives and their therapeutic applications” (priority 1980, dated 1985)
